# Test results: EP4800018A1, “PAN-KRAS INHIBITOR AND USE THEREOF IN MEDICINES” (Betta Pharmaceuticals Co., Ltd., priority 2023, dated 2025)
# Experiments:
# KRAS G12V-cRAF = target: T1, KRAS G12V-cRAF (Homo sapiens, UniProt P01116, G12V); experiment: Cellular KRAS G12V-cRAF Binding Inhibition Assay (NanoBRET, AD293 stable cells); format: cell-based; settings: 3 h incubation, read-out: NanoBRET KRAS G12V
# T1 construct: expressed in transfected cells
# Method in brief: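 Live AD293 stable cells, NanoLuc donor with HaloTag NanoBRET 618 ligand acceptor added overnight. Inhibition percent from luminescence relative to max signal and medium blank; IC50 from curve fitting.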
# [1] = system: KRAS-G12D mutant tumor cells AGS; experiment: Cell Proliferation Inhibition Assay (AGS), Cell-titer GLO, 96 h; format: cell-based; settings: Homo sapiens, AGS, 96 h, AGS cells, 96 h incubation, Cell-titer GLO; read-out: AGS(G12D)
# Method in brief: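 AGS cells (KRAS-G12D) grown in low-attachment plates were exposed to compound for 96 h at 37°C. Viability was read by CellTiter-Glo luminescence and converted to % inhibition against max and blank wells. IC50 came from curve fitting.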
# [2] = PK Study of Compounds in Dogs; format: in vivo, Beagle dogs; settings: mean; for Cmax: read-out: C0/Cmax
# Description: The test compound was mixed with the vehicle (10% DMSO/5% Solutol/85% physiological saline), vortexed and sonicated to prepare a clear 1 mg/mL intravenous injection solution. The test compound was mixed with the vehicle (10% DMSO + 5% HS15 + 85% 10 mM aqueous citric acid solution), vortexed and sonicated to prepare a clear 0.6 mg/mL oral solution. Beagle dogs (two males, one female) were selected and administered the test compound via intravenous (IV) and oral (PO) routes, respectively. Whole blood samples were collected at 0 min, 5 min, 15 min, 30 min, 1 h, 2 h, 4 h, 6 h, 8 h, 12 h, 24 h, 48 h, and 72 h for the intravenous route, and at 0 min, 15 min, 30 min, 1 h, 2 h, 4 h, 6 h, 8 h, 12 h, 24 h, 48 h, and 72 h for the oral route. Drug concentrations were analyzed by LC-MS/MS method, and pharmacokinetic parameters were calculated using Phoenix WinNonlin software (Pharsight, USA).
# [3] = system: KRAS-G12V mutant tumor cells SW620; experiment: Cell Proliferation Inhibition Assay (SW620), Cell-titer GLO, 96 h; format: cell-based; settings: Homo sapiens, SW-620, 96 h, SW620 cells, 96 h incubation, Cell-titer GLO; read-out: SW620(G12V)
# Method in brief: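 SW620 cells (1×10^3/well, low-attachment) were exposed to compound from 10000 to 0.03 nM (0.5% DMSO) for 96 h at 37°C. Viability was read by Cell-titer GLO luminescence. Inhibition was calculated relative to DMSO and blank wells, and IC50 obtained by curve fitting.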
# [4] = PK Study of Compounds in Rats; format: in vivo, Male SD rats; settings: mean; for AUC(0-t): read-out: AUC0-t; for Cmax: read-out: C0/Cmax
# Description: The test compound was mixed with the vehicle (10% DMSO/5% Solutol/85% physiological saline), vortexed and sonicated to prepare a clear 0.5 mg/mL intravenous injection solution. The test compound was mixed with the vehicle (20% PEG400/10% Solutol/70% pH 4.5 acetate buffer), vortexed and sonicated to prepare a clear 1 mg/mL oral solution. Male SD rats aged 6 to 7 weeks were selected and administered the test compound via intravenous (IV) and oral (PO) routes, respectively. Whole blood samples were collected at 5 min, 15 min, 30 min, 1 h, 2 h, 4 h, 7 h, and 24 h for the intravenous route, and at 15 min, 30 min, 1 h, 2 h, 4 h, 7 h, and 24 h for the oral route. Drug concentrations were analyzed by LC-MS/MS method, and pharmacokinetic parameters were calculated using Phoenix WinNonlin software (Pharsight, USA).
# KRAS G12D-cRAF = target: T2, KRAS G12D-cRAF (Homo sapiens, UniProt P01116, G12D); experiment: Cellular KRAS G12D-cRAF Binding Inhibition Assay (NanoBRET, AD293 stable cells); format: cell-based; settings: 3 h incubation, read-out: NanoBRET KRAS G12D
# T2 construct: expressed in transfected cells
# T2 sequence (P01116 1-188 isoform P01116-2 G12D): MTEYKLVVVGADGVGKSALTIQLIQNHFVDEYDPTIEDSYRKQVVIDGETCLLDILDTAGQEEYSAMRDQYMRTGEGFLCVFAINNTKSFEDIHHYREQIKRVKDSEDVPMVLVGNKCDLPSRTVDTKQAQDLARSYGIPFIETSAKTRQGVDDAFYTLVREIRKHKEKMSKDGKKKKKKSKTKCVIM
# Method in brief: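 AD293 cells stably expressing KRAS G12D-NanoLuc and cRAF RBD-HaloTag were seeded at 1×10^4 cells/well with NanoBRET 618 ligand overnight. BRET signal was converted to % inhibition of binding relative to max and blank wells, and IC50 came from curve fitting.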
# [5] = both sexes, beagle, dog, whole blood, IV 1 mg/kg (n=3)
# [6] = both sexes, beagle, dog, whole blood, PO 3 mg/kg (n=3)
# [7] = male, SD, rat, whole blood, IV 1 mg/kg (n=3)
# [8] = male, SD, rat, whole blood, PO 10 mg/kg (n=3)
# T1 sequence (P01116 1-188 isoform P01116-2 G12V): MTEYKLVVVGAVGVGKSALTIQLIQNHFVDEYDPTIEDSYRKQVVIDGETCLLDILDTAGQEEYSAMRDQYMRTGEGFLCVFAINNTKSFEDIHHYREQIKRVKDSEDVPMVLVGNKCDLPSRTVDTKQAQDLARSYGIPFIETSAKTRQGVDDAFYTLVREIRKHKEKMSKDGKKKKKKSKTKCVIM
smiles,measurement,setting,value
"CC1OCCCn2c(c3c4cc(ccc42)-c2csc(n2)CC(NC(=O)C2C(C)C2C)C(=O)N2NC(C(=O)OCC(C)(C)C3)C3CC2C3)-c2cc(N3CCN(C)CC3)cnc21 [Example 186, (1r,2R,3S)-2,3-dimethyl-N-((1^5S,6^4S,4S,Z)-1^5,10,10-trimethyl-1^2-(4-methylpiperazin-1-yl)-5,7-dioxo-1^8,1^9-dihydro-1^5H,1^7H-8-oxa-6^2,6^3-diaza-1(13,15)-pyrido[3',2':7,8][1,5]oxazonino[5,6-a]indola-2(4,2)-thiazola-6(2,4)-bicyclo[3.1.1]heptanacycloundecaphane-4-yl)cyclopropane-1-carbox amide]",IC50,KRAS G12V-cRAF,5.4 nM
same,IC50,[1],0.42 nM
same,F,[2]; PO 3 mg/kg vs IV 1 mg/kg (n=3),41.2
same,AUC(0-t),[2]; [5],16600 ng·h/mL
same,clearance,[2]; [5],0.659 mL/min/kg
same,half-life,[2]; [5],34.8 h
same,Cmax,[2]; [5],2020 ng/mL
same,Vd,"[2]; both sexes, beagle, dog, whole blood, IV 1 mg/kg (n=3), read-out: Vss",2.62 L/kg
same,AUC(0-t),[2]; [6],20500 ng·h/mL
same,Tmax,[2]; [6],1.17 h
same,Cmax,[2]; [6],608 ng/mL
same,IC50,[3],0.15 nM
same,F,[4]; PO 10 mg/kg vs IV 1 mg/kg (n=3),19.5
same,clearance,[4]; [7],1.93 mL/min/kg
same,half-life,[4]; [7],8.4 h
same,AUC(0-t),[4]; [7],7510 ng·h/mL
same,Cmax,[4]; [7],4250 ng/mL
same,Vd,"[4]; male, SD, rat, whole blood, IV 1 mg/kg (n=3), read-out: Vss",1.2 L/kg
same,AUC(0-t),[4]; [8],14600 ng·h/mL
same,Cmax,[4]; [8],1370 ng/mL
same,Tmax,"[4]; male, SD, rat, whole blood, PO 10 mg/kg (n=3), read-out: Tmax",4 h
same,IC50,KRAS G12D-cRAF,0.8 nM
